Measured values taken from patent US10208066B2, “Imidazopyridazine compounds and their use” (HUTCHISON MEDIPHARMA LIMITED, priority 2014, dated 2019).
pIC50: −log10 of the molar value. Like-named read-outs stand apart in the source and are kept apart here.

Tests used:
[1] = target: PI3K-β (Homo sapiens, UniProt P42338); assay: Transcreener KINASE Assay, fluorescent determination of PI3K enzyme activity; format: biochemical; settings: for inhibition at 1 µM: read-out: PI3K-β IH % (inhibition rate); for inhibition at 1 µM / PI3K-β IH % (inhibition rate): at 1 μM;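 as to all read-outs here: recombinant PI3K enzyme reaction, 80 min at room temperature, ADP formed detected by far-red competitive fluorescence polarization immunoassay, inhibition relative to ADP in 2% DMSO control wells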
Method: (§1) It is a universal, homogenous, high throughput screening (HTS) technology using a far-red, competitive fluorescence polarization immunoassay based on the detection of ADP to monitor the activity of enzymes that catalyze group transfer reactions. […] The reaction mixture was added into desired wells of a 96-well plate. The plate was sealed and incubated for 80 min at room temperature. • 2) Next, 25 uL ADP detection mix was added into each well. The plate was sealed again and incubated for 60 min at room temperature. Then fluorescence polarization was measured by Tecan Infinite F500 Reader.
(§2) Data was analyzed and IC50 values were generated using the add-in software for Microsoft Excel, Xlfit™ (version 5.3).

[2] = target: PI3K-γ (p110γ) (Homo sapiens (Human), UniProt P48736); assay: as above; format: biochemical; settings: for inhibition at 1 µM: read-out: PI3K-γ IH % (inhibition rate);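 as to all read-outs here: ADP produced by p110γ kinase reaction, 80 min at room temperature, detected by far-red fluorescence polarization immunoassay, inhibition relative to 2% DMSO control wells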
Method: as §1, §2

[3] = system: AKT phosphorylation (p-AKT Ser473) in Ramos cells; assay: Inhibition of AKT phosphorylation in Ramos cell line (anti-IgM stimulated); format: cell-based; settings: Homo sapiens, read-out: IC50, inhibition of AKT phosphorylation
Method: 6×10^4/mL Ramos cells (ATCC, CRL-1596; cells were cultured in RPMI1640 media with 10% FBS) were seeded into a 96-well plate (Beckman Dickinson, No. 356692) at 80 uL/well, 4,800 cells/well. After incubation for 3 hr at 37° C. under 5% CO2, Ramos cells were treated with 10 uL/well various concentrations of test compound (final concentrations of the test compound: 1 uM, 0.3 uM, 0.1 uM, 0.037 uM, 0.012 uM, 0.0041 uM, 0.0014 uM and 0.0005 uM) or 0.3% DMSO for 30 min, and then were stimulated with 10 uL/well 1 ug/ml Anti-IgM (Jackson Immunoresearch, 709-006-073) for 15-20 min. • 1) Cells were fixed with 100 μL of 4% pre-warmed Paraformaldehyde (2% final concentration), and incubated for 45 min at room temperature. • 2) The paraformaldehyde solution was removed. 100 μL of ice-cold methanol was added into each well and the plate was left at 4° C. for 30 min. • 3) The cells were washed for three times with 160 μL PBS. • 4) 40 μL 1:350 dilution of Rabbit anti-p-AKT(Ser^473) antibody (Cell Signaling Technology, 4060L) in antibody dilution buffer (1% BSA, in PBS) were added into each well. The plate was inculpated overnight at 4° C. • 5) The cells were washed for 3 times with 160 uL PBS. • 6) 45 μL of Goat anti-rabbit IgG Alexa488 antibody (Invitrogen, A11034) at a 1:1,000 dilution in antibody dilution buffer (1% BSA, in PBS) were added into each well. The plate was covered with foil to keep out of light and was incubated for 90 min at room temperature. • 7) The cells were washed for 3 times with 160 uL PBS. • 8) 50 μL of 1.5 μM Propidium Iodide (Sigma: P4170) solution was added into each well to determine cell number (1.5 mM Propidium iodide stock was diluted with 1:1,000 in PBS, and the final concentration was 1.5 μM). • 9) The plate was incubated at room temperature for 30 min and then was sealed with a cover-seal. • 10) The plate was loaded into the Acumen Explorer and scan with the appropriate instrument settings.
as §2

[4] = target: PI3K-δ (p110δ/p85α) (Homo sapiens (Human), UniProt O00329); assay: Transcreener KINASE Assay, fluorescent determination of PI3K enzyme activity; format: biochemical;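 also: ADP formed by the kinase detected via far-red competitive fluorescence polarization immunoassay after 80 min room-temperature reaction, inhibition relative to 2% DMSO wells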
Method: as §1, §2

[5] = system: SU-DHL-6 cells; assay: In vitro cell proliferation assay in SU-DHL-6 cell line (CCK-8); format: cell-based; settings: Homo sapiens, SU-DHL-6, 72 h
Method: Growth inhibition assays were carried out using 10% FBS supplemented media. Cells were seeded at a concentration of 15000 cells/well in a 96 well plate. Test compound dilution at different concentrations (final concentrations of the test compound: 1 uM, 0.3 uM, 0.1 uM, 0.037 uM, 0.012 uM, 0.0041 uM, 0.0014 uM and 0.0005 uM) were added after 24 hours. Growth was assessed using Cell Counting Kit-8 (CCK-8) (Dojindo, Cat#CK04) after the test compound were incubated for 72 h. Absorbance was read at the wave length 450 nm on Multiskan MK3 machine (Thermo).
as §2

[6] = target: PI3K-α (p110α/p85α) (Homo sapiens (Human), UniProt P42336); assay: Transcreener KINASE Assay, fluorescent determination of PI3K enzyme activity; format: biochemical
Method: Inhibition rates were calculated as follow: IH %=(ADP amount under 2% DMSO well−ADP amount under test compound well)/ADP amount under 2% DMSO well×100%.

[7] = system: PI3Kδ signaling in basophils; assay: Inhibition of PI3Kδ signaling in basophils from human whole blood; format: cell-based; settings: read-out: IC50, inhibition of PI3Kδ signaling in basophils
Method: Methods • 1) Heparinized human whole blood was mixed and pipetted into the 96 well v-bottom plate, 100 μL per well. • 2) 10 μL of stimulation buffer (1 mg/mL stock, final concentration of Recombinant human IL-3: 20 ng/mL) was added to the whole blood samples of each well and vortex gently. […] Vortex all the wells once more and incubate for 20 min at 37° C. • 5) Labeling with staining antibody: Degranulation was stopped by incubating the samples on ice for 5 min. 6 μL of staining antibody mixture (anti-CD63-FITC and anti-IgE-PE) was added into each well. Vortex and incubate the wells for 20 min in an ice bath, covered to prevent exposure to light. • 6) The whole blood samples were lysed with 300 uL RBC lysis (pre-warmed to room temperature, 20 to 25° C.). Vortex and incubate the samples for 15 min at room temperature. Spin down cells (5 min, 250×g, 4° C.). The supernatant was aspirated leaving approximately 100 μL in each well. • 7) The blood samples were lysed once more as step 6). • 8) Washing: The samples are washed once with 0.5 mL of washing solution. The plate was centrifuged (5 min, 250×g, 4° C.). The supernatant was aspirated leaving approximately 100 μL in each well. The sample in each well was washed and centrifuged once more as above. • 9) 200 μL of fixing solution (1% papraledehyde in 1% BSA/PBS) was added into each well.
as §2

[8] = Ramos cells, anti-IgM stimulation
[9] = human whole blood, anti-human IgE stimulation, CD63

PI3K-α (p110α/p85α), sequence (P42336 whole entry, species assumed): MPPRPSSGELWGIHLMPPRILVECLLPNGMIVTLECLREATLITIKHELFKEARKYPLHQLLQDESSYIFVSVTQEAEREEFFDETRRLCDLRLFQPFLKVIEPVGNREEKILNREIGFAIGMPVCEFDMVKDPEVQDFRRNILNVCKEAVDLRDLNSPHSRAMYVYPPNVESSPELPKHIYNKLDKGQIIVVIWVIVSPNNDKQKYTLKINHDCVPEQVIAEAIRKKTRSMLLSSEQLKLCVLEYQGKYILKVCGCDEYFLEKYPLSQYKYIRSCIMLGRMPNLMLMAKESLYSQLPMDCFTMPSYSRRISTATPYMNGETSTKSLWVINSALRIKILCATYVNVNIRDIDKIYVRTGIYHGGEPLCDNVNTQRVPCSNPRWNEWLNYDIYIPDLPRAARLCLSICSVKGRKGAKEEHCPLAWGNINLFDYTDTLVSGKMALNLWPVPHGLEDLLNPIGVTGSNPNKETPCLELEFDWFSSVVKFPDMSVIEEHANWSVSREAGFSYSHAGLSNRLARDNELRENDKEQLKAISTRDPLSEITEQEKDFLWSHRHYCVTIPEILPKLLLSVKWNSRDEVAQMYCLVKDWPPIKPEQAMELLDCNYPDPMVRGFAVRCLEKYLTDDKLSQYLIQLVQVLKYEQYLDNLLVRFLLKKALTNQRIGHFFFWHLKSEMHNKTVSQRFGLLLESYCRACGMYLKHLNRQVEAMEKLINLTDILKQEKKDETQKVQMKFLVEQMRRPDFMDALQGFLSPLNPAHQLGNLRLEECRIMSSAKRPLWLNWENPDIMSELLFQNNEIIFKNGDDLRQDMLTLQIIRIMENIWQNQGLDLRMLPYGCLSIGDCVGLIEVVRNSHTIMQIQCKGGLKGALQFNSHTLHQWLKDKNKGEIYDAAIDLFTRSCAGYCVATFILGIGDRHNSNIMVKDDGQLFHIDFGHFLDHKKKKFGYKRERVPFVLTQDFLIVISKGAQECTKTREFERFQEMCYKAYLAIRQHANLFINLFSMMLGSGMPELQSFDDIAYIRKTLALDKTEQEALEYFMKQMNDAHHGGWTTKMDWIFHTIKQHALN
PI3K-α (p110α/p85α), sequence (P27986 whole entry partner, species assumed): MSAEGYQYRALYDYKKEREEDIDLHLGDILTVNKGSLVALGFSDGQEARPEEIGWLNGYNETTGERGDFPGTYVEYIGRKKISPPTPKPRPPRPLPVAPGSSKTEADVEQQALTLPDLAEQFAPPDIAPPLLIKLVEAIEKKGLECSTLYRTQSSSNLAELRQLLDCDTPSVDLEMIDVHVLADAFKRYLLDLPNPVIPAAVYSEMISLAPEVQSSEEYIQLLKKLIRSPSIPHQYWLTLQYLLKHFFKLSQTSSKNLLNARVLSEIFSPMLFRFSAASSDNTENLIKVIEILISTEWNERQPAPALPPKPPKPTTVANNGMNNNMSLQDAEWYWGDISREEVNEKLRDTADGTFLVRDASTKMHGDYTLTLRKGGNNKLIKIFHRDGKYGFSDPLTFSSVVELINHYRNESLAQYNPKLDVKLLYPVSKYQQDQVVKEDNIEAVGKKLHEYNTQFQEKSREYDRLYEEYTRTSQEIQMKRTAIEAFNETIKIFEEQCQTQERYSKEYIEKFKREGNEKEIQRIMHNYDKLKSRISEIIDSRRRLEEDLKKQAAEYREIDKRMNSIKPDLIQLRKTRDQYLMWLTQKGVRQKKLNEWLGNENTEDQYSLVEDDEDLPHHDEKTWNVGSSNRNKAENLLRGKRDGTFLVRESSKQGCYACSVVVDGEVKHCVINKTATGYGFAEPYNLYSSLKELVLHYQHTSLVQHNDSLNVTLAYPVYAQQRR
PI3K-β, sequence (P42338 whole entry, looked up): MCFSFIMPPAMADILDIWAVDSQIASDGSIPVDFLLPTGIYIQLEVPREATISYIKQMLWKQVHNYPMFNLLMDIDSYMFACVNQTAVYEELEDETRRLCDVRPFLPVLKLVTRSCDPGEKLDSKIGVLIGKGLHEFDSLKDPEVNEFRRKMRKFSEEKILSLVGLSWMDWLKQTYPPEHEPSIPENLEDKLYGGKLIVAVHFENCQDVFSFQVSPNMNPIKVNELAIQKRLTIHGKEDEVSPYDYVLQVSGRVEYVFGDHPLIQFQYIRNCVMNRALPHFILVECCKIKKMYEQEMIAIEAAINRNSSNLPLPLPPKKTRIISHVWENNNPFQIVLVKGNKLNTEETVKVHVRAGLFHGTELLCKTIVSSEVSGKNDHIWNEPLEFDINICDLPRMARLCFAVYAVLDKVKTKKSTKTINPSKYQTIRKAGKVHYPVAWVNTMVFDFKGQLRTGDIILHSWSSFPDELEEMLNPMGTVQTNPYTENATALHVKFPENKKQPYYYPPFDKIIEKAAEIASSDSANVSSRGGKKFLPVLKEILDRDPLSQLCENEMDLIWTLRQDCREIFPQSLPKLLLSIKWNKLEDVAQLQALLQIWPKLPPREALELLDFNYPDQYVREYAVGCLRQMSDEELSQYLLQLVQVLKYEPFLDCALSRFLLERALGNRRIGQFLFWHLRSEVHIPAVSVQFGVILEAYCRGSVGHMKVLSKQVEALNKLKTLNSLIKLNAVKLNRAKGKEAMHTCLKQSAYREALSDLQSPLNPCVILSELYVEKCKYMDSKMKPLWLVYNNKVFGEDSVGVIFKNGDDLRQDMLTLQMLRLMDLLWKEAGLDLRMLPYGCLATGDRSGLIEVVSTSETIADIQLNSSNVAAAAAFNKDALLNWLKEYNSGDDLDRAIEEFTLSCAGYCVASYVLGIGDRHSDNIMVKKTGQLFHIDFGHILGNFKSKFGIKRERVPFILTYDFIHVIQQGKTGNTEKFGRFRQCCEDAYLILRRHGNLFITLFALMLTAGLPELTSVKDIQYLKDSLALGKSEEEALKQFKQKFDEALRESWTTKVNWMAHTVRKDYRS
PI3K-γ (p110γ), sequence (P48736 whole entry, species assumed): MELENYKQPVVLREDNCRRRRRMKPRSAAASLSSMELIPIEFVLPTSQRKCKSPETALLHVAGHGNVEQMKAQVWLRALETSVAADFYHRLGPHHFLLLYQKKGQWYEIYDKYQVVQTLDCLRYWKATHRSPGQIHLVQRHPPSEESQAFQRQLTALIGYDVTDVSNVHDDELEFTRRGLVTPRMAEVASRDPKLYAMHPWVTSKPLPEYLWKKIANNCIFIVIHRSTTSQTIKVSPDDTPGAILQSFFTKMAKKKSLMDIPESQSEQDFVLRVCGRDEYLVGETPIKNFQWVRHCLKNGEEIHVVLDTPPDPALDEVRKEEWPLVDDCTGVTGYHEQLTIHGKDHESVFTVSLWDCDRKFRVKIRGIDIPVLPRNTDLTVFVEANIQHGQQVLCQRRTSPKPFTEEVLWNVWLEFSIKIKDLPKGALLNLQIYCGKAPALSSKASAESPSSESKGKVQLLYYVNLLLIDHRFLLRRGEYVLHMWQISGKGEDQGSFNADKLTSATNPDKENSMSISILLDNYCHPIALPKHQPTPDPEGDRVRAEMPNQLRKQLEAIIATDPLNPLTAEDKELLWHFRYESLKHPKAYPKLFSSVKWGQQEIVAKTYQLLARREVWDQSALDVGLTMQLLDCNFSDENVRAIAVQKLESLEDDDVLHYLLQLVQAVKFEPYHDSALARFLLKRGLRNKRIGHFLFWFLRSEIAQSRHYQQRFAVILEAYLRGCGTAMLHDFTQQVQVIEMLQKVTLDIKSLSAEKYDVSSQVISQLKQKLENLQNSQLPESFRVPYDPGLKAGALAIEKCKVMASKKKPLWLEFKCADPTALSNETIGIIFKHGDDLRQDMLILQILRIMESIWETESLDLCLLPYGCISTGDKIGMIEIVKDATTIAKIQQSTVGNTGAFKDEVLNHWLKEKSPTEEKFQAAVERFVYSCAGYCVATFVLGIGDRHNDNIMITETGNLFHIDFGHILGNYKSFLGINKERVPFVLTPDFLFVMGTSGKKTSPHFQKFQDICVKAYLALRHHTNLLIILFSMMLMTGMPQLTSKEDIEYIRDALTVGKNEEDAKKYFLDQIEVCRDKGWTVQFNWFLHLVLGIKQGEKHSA
PI3K-δ (p110δ/p85α), sequence (O00329 whole entry, species assumed): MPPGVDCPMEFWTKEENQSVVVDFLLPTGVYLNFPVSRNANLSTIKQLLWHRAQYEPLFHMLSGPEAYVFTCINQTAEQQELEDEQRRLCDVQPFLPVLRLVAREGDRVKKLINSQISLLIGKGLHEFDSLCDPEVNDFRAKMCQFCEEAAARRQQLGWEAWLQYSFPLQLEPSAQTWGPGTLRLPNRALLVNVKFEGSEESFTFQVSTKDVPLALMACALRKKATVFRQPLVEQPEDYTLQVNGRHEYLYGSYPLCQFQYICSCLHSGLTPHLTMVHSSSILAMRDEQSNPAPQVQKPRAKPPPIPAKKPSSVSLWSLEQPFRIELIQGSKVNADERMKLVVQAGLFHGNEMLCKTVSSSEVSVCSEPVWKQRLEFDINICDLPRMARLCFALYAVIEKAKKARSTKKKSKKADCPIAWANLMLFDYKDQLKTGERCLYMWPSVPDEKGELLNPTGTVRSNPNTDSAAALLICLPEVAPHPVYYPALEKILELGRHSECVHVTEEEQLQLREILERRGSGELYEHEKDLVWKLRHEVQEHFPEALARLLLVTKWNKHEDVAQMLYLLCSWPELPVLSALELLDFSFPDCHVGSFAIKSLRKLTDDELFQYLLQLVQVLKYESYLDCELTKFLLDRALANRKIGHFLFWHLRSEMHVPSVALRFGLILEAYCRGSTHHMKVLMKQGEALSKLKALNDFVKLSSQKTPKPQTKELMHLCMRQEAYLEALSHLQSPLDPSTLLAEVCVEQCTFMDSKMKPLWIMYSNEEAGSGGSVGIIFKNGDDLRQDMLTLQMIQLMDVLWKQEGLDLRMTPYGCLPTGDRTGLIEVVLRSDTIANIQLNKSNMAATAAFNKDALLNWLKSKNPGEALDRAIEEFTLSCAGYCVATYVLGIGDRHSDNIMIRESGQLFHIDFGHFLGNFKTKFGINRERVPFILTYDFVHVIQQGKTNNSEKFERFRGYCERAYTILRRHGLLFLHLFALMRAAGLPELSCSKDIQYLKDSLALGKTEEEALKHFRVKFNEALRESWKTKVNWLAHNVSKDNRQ
PI3K-δ (p110δ/p85α), sequence (P27986 whole entry partner, species assumed): as the sequence (P27986 whole entry partner, species assumed) above

SMILES	pIC50 [1]	pIC50 [2]	pIC50 [3, 8]	pIC50 [4]	inhibition at 1 µM [1] [%]	pIC50 [7, 9]	also measured
C[C@H](Nc1ncnc(N)c1C#N)c1cc2ncc(Cl)n2nc1-c1ccccc1C(F)(F)F [Compound 45]	6.35	6.71	8.52	8.52	–	–	–
C[C@H](Nc1ncnc2[nH]ccc12)c1cc2ncc(Cl)n2nc1-c1ccccc1 [Compound 17]	–	–	–	7.59	15.8	6.21	pIC50 [5]: 6.76; inhibition at 1 µM ([2]; at 1 μM): 61.2%; pIC50 [6]: < 6.00
C[C@H](Nc1ncnc(N)c1C#N)c1cc2ncc(Cl)n2nc1-c1cccc(F)c1 [Compound 15]	–	6.41	9.30	9.00	59	8.70	pIC50 [5]: 8.70; pIC50 [6]: < 6.00
C[C@H](Nc1ncnc(N)c1Cl)c1cc2ncc(Cl)n2nc1-c1ccccc1 [Compound 40]	6.56	< 6.48	8.52	8.70	–	–	–
C[C@H](Nc1ncnc(N)c1C#N)c1cc2ncc(Cl)n2nc1-c1ccc2cccnc2c1 [Compound 61]	–	–	7.39	8.15	24.4	6.96	inhibition at 1 µM ([2]; at 1 μM): 26.5%
C[C@H](Nc1ncnc(N)c1C#N)c1cc2ncc(Cl)n2nc1-c1cccc(F)c1F [Compound 36]	5.88	6.61	9.00	8.52	–	–	–
C[C@H](Nc1ncnc(N)c1C#N)c1cc2ncc(Cl)n2nc1-c1cccnc1 [Compound 77]	6.62	6.36	8.52	8.70	–	–	–
C[C@H](Nc1ncnc(N)c1C#N)c1cc2ncc(Cl)n2nc1-c1cc(F)cc(F)c1 [Compound 30, (S)-4-amino-6-((1-(3-chloro-6-(3,5-difluorophenyl)imidazo[1,2-b]pyridazin-7-yl)ethyl)amino)pyrimidine-5-carbonitrile]	5.98	6.39	–	8.52	–	–	pIC50 ([7]; Homo sapiens): 8.22; pIC50 ([3]; Ramos): 9.00
C[C@H](Nc1ncnc(N)c1C#N)c1cc2ncc(Cl)n2nc1-c1ccccc1S(C)(=O)=O [Compound 68]	6.02	6.46	9.00	8.70	–	8.70	–
CC(Nc1ncnc(N)c1C#N)c1cc2ncc(Cl)n2nc1-c1ccccc1 (racemic) [Compound 2, 4-amino-6-((1-(3-chloro-6-phenylimidazo[1,2-b]pyridazin-7-yl)ethyl)amino)pyrimidine-5-carbonitrile]	–	–	–	–	–	–	pIC50 [6]: < 6.00
Cc1cccc(-c2nn3c(Cl)cnc3cc2[C@H](C)Nc2ncnc(N)c2C#N)c1 [Compound 62]	5.91	6.61	9.00	8.70	–	7.82	–
C[C@H](Nc1ncnc(N)c1C#N)c1cc2ncc(Cl)n2nc1-c1ccc2scnc2c1 [Compound 74]	–	–	7.64	8.05	49.4	–	inhibition at 1 µM ([2]; at 1 μM): 40.8%
CCC(Nc1ncnc(N)c1C#N)c1cc2ncc(Cl)n2nc1-c1ccccn1 (centres unmarked) [Compound 29]	6.76	–	–	8.52	–	–	pIC50 [5]: 7.96; PI3K-γ IH % (inhibition rate) ([2]; at 1 μM): 35%
C[C@H](Nc1ncnc(N)c1C#N)c1cc2ncc(Cl)n2nc1-c1cccc(S(C)(=O)=O)c1 [Compound 46]	5.88	7.30	8.22	8.40	–	–	–
C[C@H](Nc1ncnc(N)c1C#N)c1cc2ncc(Cl)n2nc1-c1cccc(Cl)c1 [Compound 41]	5.88	6.30	7.92	8.52	–	7.74	–
CCC(Nc1ncnc(N)c1C#N)c1cc2ncc(Cl)n2nc1-c1cccc(F)c1 (centres unmarked) [Compound 24]	–	–	8.15	8.70	46.6	7.96	pIC50 [5]: 7.96; inhibition at 1 µM ([2]; at 1 μM): 44.5%
CCC(Nc1ncnc(N)c1C#N)c1cc2ncc(Cl)n2nc1-c1ccccc1F (centres unmarked) [Compound 19]	5.97	5.71	–	8.70	–	7.80	pIC50 [5]: 7.64; pIC50 [6]: < 6.00
Cc1nc2cc([C@H](C)Nc3ncnc(N)c3C#N)c(-c3ccccc3)nn2c1Cl [Compound 59]	5.94	5.62	8.22	8.30	–	7.00	–

SMILES	pIC50 [1]	pIC50 [2]	pIC50 [3, 8]	pIC50 [4]	inhibition at 1 µM [1] [%]	pIC50 [7, 9]	also measured
C[C@H](Nc1ncnc(N)c1C#N)c1cc2ncc(Cl)n2nc1-c1cccc(C(F)(F)F)c1 [Compound 48]	5.39	5.88	8.10	8.05	–	7.39	–
C[C@H](Nc1ncnc(N)c1C#N)c1cc2ncc(Cl)n2nc1-c1ccccn1 [Compound 8, (S)-4-amino-6-((1-(3-chloro-6-(pyridin-2-yl)imidazo[1,2-b]pyridazin-7-yl)ethyl)amino)pyrimidine-5-carbonitrile]	–	–	–	8.00	37.7	8.05	pIC50 [5]: 7.51; inhibition at 1 µM ([2]; at 1 μM): -1.4%; pIC50 [6]: < 6.00
Cc1ccccc1-c1nn2c(Cl)cnc2cc1[C@H](C)Nc1ncnc(N)c1C#N [Compound 31, (S)-4-amino-6-((1-(3-chloro-6-(o-tolyl)imidazo[1,2-b]pyridazin-7-yl)ethyl)amino)pyrimidine-5-carbonitrile]	6.43	6.84	8.70	8.40	–	–	–
C[C@H](Nc1ncnc(N)c1C#N)c1cc2ncc(Cl)n2nc1-c1cc(F)cc(Cl)c1 [Compound 66]	5.37	5.95	8.70	8.05	–	6.58	–
C[C@H](Nc1ncnc(N)c1C(N)=O)c1cc2ncc(Cl)n2nc1-c1ccccc1 [Compound 53, (S)-4-amino-6-((1-(3-chloro-6-phenylimidazo[1,2-b]pyridazin-7-yl)ethyl)amino)pyrimidine-5-carboxamide]	–	–	7.80	–	30.5	–	inhibition at 1 µM ([2]; at 1 μM): 34.3%
C[C@@H](c1cc2ncc(Cl)n2nc1-c1ccccc1)n1ccc2c(N)ncnc21 [Compound 27, (S)-7-(1-(3-chloro-6-phenylimidazo[1,2-b]pyridazin-7-yl)ethyl)-7H-pyrrolo[2,3-d]pyrimidin-4-amine]	–	–	–	7.60	9.5	6.25	inhibition at 1 µM ([2]; at 1 μM): 24.9%
C[C@H](Nc1ncnc(N)c1C#N)c1cc2ncc(Cl)n2nc1-c1cc(F)ccc1F [Compound 35]	–	–	7.89	8.40	67.6	–	inhibition at 1 µM ([2]; at 1 μM): 64.6%
CCC(Nc1ncnc2[nH]cnc12)c1cc2ncc(Cl)n2nc1-c1ccccc1 (centres unmarked) [Compound 18]	–	6.21	–	8.40	–	7.06	PI3K-β IH % (inhibition rate) [1]: 42%; pIC50 [5]: 7.59; pIC50 [6]: < 6.00
Cc1nc(N)c(C#N)c(N[C@@H](C)c2cc3ncc(Cl)n3nc2-c2ccccc2)n1 [Compound 32]	–	6.61	7.70	7.82	23.8	–	–
C[C@H](Nc1ncnc(N)c1C#N)c1cc2ncc(Cl)n2nc1-c1cccc(C#N)c1 [Compound 65]	5.90	6.21	8.70	8.70	–	7.85	–
C[C@@H](c1cc2ncc(Cl)n2nc1-c1ccccc1)n1cnc2c(N)ncnc21 [Compound 20, (S)-9-(1-(3-chloro-6-phenylimidazo[1,2-b]pyridazin-7-yl)ethyl)-9H-purin-6-amine]	–	–	–	7.14	17.4	6.40	pIC50 [5]: 6.58; inhibition at 1 µM ([2]; at 1 μM): 43.1%; pIC50 [6]: < 6.00
Cc1cc(F)cc(-c2nn3c(Cl)cnc3cc2[C@H](C)Nc2ncnc(N)c2C#N)c1 [Compound 67]	5.45	5.94	8.52	8.30	–	8.00	–
CCC(Nc1ncnc2[nH]cnc12)c1cc2ncc(Cl)n2nc1-c1ccccc1F (single isomer, unassigned) [Compound 25]	–	–	8.30	–	–	7.43	PI3K-β IH % (inhibition rate) [1]: 22.8%; pIC50 [5]: 7.49
COc1ccc(-c2c(N)ncnc2N[C@@H](C)c2cc3ncc(Cl)n3nc2-c2ccccc2)cn1 [Compound 39]	–	–	–	7.14	-4.4	–	inhibition at 1 µM ([2]; at 1 μM): 28.1%
C[C@H](Nc1ncnc(N)c1-c1nn[nH]n1)c1cc2ncc(Cl)n2nc1-c1ccccc1 [Compound 21, (S)—N^4-(1-(3-chloro-6-phenylimidazo[1,2-b]pyridazin-7-yl)ethyl)-5-(2H-tetrazol-5-yl)pyrimidine-4,6-diamine]	–	6.37	–	8.22	–	–	inhibition at 1 µM ([6]; at 1 μM, read-out: PI3K-α IH % (inhibition rate)): 21.7%
C[C@H](Nc1ncnc2[nH]cnc12)c1cc2ncc(Cl)n2nc1-c1cccc(F)c1 [Compound 16]	–	6.49	–	8.52	27.5	–	pIC50 [6]: < 6.00
CC(Nc1ncnc2[nH]cc(C#N)c12)c1cc2ncc(Cl)n2nc1-c1ccccc1 (single isomer, unassigned) [Compound 9]	6.80	7.34	–	8.70	–	–	–
